Assays:
Type in all cases: functional
SW-620 = test: Cytotoxicity against human SW620 cells assessed as cell growth at 10 uM after 48 hrs by SRB assay relative to control; conditions: SW-620, 48 h, read-out: Activity
UO-31 = test: Cytotoxicity against human UO31 cells assessed as cell growth at 10 uM after 48 hrs by SRB assay relative to control; conditions: UO-31, 48 h, read-out: Activity
A498 = test: Cytotoxicity against human A498 cells assessed as cell growth at 10 uM after 48 hrs by SRB assay relative to control; conditions: A498, 48 h, read-out: Activity
SF-295 = test: Cytotoxicity against human SF295 cells assessed as cell growth at 10 uM after 48 hrs by SRB assay relative to control; conditions: SF-295, 48 h, read-out: Activity
U-251 = test: Cytotoxicity against human U251 cells assessed as cell growth at 10 uM after 48 hrs by SRB assay relative to control; conditions: U-251, 48 h, read-out: Activity
RPMI-8226 = test: Cytotoxicity against human RPMI8226 cells assessed as cell growth at 10 uM after 48 hrs by SRB assay relative to control; conditions: RPMI-8226, 48 h, read-out: Activity
SK-MEL-2 = test: Cytotoxicity against human SK-MEL-2 cells assessed as cell growth at 10 uM after 48 hrs by SRB assay relative to control; conditions: SK-MEL-2, 48 h, read-out: Activity
HCC 2998 = test: Cytotoxicity against human HCC2998 cells assessed as cell growth at 10 uM after 48 hrs by SRB assay relative to control; conditions: HCC 2998, 48 h, read-out: Activity
UACC-62 = test: Cytotoxicity against human UACC62 cells assessed as cell growth at 10 uM after 48 hrs by SRB assay relative to control; conditions: UACC-62, 48 h, read-out: Activity
MDA-MB-435 = test: Cytotoxicity against human MDA-MB-435 cells assessed cell growth at 10 uM after 48 hrs by SRB assay relative to control
K562 = test: Cytotoxicity against human K562 cells assessed as cell growth at 10 uM after 48 hrs by SRB assay relative to control; conditions: K562, 48 h, read-out: Activity
HCT-15 = test: Cytotoxicity against human HCT15 cells assessed as cell growth at 10 uM after 48 hrs by SRB assay relative to control; conditions: HCT-15, 48 h, read-out: Activity
MDA-MB-468 = test: Cytotoxicity against human MDA-MB-468 cells assessed as cell growth at 10 uM after 48 hrs by SRB assay relative to control; conditions: MDA-MB-468, 48 h, read-out: Activity
[1] = Cytotoxicity against human Hs 578T cells assessed as cell growth at 10 uM after 48 hrs by SRB assay relative to control; conditions: read-out: Activity
RXF 393 = test: Cytotoxicity against human RXF393 cells assessed as cell growth at 10 uM after 48 hrs by SRB assay relative to control; conditions: RXF 393, 48 h, read-out: Activity
ACHN = test: Cytotoxicity against human ACHN cells assessed as cell growth at 10 uM after 48 hrs by SRB assay relative to control; conditions: read-out: Activity
OVCAR-3 = test: Cytotoxicity against human OVCAR3 cells assessed as cell growth at 10 uM after 48 hrs by SRB assay relative to control; conditions: OVCAR-3, 48 h, read-out: Activity
SK-MEL-28 = test: Cytotoxicity against human SK-MEL-28 cells assessed as cell growth at 10 uM after 48 hrs by SRB assay relative to control; conditions: SK-MEL-28, 48 h, read-out: Activity
TK-10 = test: Cytotoxicity against human TK10 cells assessed as cell growth at 10 uM after 48 hrs by SRB assay relative to control; conditions: TK-10, 48 h, read-out: Activity
NCI-H226 = test: Cytotoxicity against human NCI-H226 cells assessed as cell growth at 10 uM after 48 hrs by SRB assay relative to control; conditions: NCI-H226, 48 h, read-out: Activity
SK-MEL-5 = test: Cytotoxicity against human SK-MEL-5 cells assessed as cell growth at 10 uM after 48 hrs by SRB assay relative to control; conditions: SK-MEL-5, 48 h, read-out: Activity
SNB-75 = test: Cytotoxicity against human SNB75 cells assessed as cell growth at 10 uM after 48 hrs by SRB assay relative to control; conditions: SNB-75, 48 h, read-out: Activity
A549 = test: Cytotoxicity against human A549 cells assessed as cell growth at 10 uM after 48 hrs by SRB assay relative to control; conditions: A549, 48 h, read-out: Activity
NCI/ADR-RES = test: Cytotoxicity against human NCI/ADR-RES cells assessed as cell growth at 10 uM after 48 hrs by SRB assay relative to control; conditions: read-out: Activity
HOP-62 = test: Cytotoxicity against human HOP62 cells assessed as cell growth at 10 uM after 48 hrs by SRB assay relative to control; conditions: HOP-62, 48 h, read-out: Activity
SF-539 = test: Cytotoxicity against human SF539 cells assessed as cell growth at 10 uM after 48 hrs by SRB assay relative to control; conditions: SF-539, 48 h, read-out: Activity
IGROV-1 = test: Cytotoxicity against human IGROV1 cells assessed as cell growth at 10 uM after 48 hrs by SRB assay relative to control; conditions: IGROV-1, 48 h, read-out: Activity
NCI-H23 = test: Cytotoxicity against human NCI-H23 cells assessed as cell growth at 10 uM after 48 hrs by SRB assay relative to control; conditions: NCI-H23, 48 h, read-out: Activity
CAKI-1 = test: Cytotoxicity against human Caki1 cells assessed as cell growth at 10 uM after 48 hrs by SRB assay relative to control; conditions: CAKI-1, 48 h, read-out: Activity
LOX IMVI = test: Cytotoxicity against human LOXIMVI cells assessed as cell growth at 10 uM after 48 hrs by SRB assay relative to control; conditions: read-out: Activity
MCF7 = test: Cytotoxicity against human MCF7 cells assessed as cell growth at 10 uM after 48 hrs by SRB assay relative to control; conditions: MCF7, 48 h, read-out: Activity
OVCAR-8 = test: Cytotoxicity against human OVCAR8 cells assessed as cell growth at 10 uM after 48 hrs by SRB assay relative to control; conditions: OVCAR-8, 48 h, read-out: Activity
SK-OV-3 = test: Cytotoxicity against human SKOV3 cells assessed as cell growth at 10 uM after 48 hrs by SRB assay relative to control; conditions: SK-OV-3, 48 h, read-out: Activity
M14 = test: Cytotoxicity against human M14 cells assessed as cell growth at 10 uM after 48 hrs by SRB assay relative to control; conditions: M14, 48 h, read-out: Activity
HCT-116 = test: Cytotoxicity against human HCT116 cells assessed as cell growth at 10 uM after 48 hrs by SRB assay relative to control; conditions: HCT-116, 48 h, read-out: Activity

SMILES	growth at 10 µM (SW-620)	growth at 10 µM (UO-31)	growth at 10 µM (A498)	growth at 10 µM (SF-295)	growth at 10 µM (U-251)	growth at 10 µM (RPMI-8226)	growth at 10 µM (SK-MEL-2)	growth at 10 µM (HCC 2998)	growth at 10 µM (UACC-62)	Activity (MDA-MB-435)	growth at 10 µM (K562)	growth at 10 µM (HCT-15)	growth at 10 µM (MDA-MB-468)	growth at 10 µM [1]	growth at 10 µM (RXF 393)	growth at 10 µM (ACHN)	growth at 10 µM (OVCAR-3)	growth at 10 µM (SK-MEL-28)	growth at 10 µM (TK-10)	growth at 10 µM (NCI-H226)	also measured
Cn1c2ccccc2c2c3c(=O)[nH]c(N)nc3c3c4cccnc4n(C)c3c21	72%	39.4%	97.5%	94.1%	81.2%	64.4%	68.5%	104%	87%	87.02%	74%	67.4%	75.1%	128%	87.4%	54.1%	98.2%	120%	76.4%	65%	growth at 10 µM (SK-MEL-5): 74.7%; growth at 10 µM (SNB-75): 74.1%; growth at 10 µM (A549): 92.9%; growth at 10 µM (NCI/ADR-RES): 80.2%; growth at 10 µM (HOP-62): 84.1%; growth at 10 µM (SF-539): 111%; growth at 10 µM (IGROV-1): 94.2%; growth at 10 µM (NCI-H23): 86.3%; growth at 10 µM (CAKI-1): 60.1%; growth at 10 µM (LOX IMVI): 66%; growth at 10 µM (MCF7): 45.2%; growth at 10 µM (OVCAR-8): 60.1%; growth at 10 µM (SK-OV-3): 87.2%; growth at 10 µM (M14): 68.8%; growth at 10 µM (HCT-116): 63%
Cn1cc(-c2[nH]c(=O)[nH]c(=O)c2-c2cn(C)c3ccccc23)c2ccccc21	88.8%	75.8%	112%	97.1%	113%	98.9%	118%	109%	88.3%	73.39%	93.8%	95%	88.5%	105%	111%	92.5%	97.3%	103%	94.5%	86.2%	growth at 10 µM (SK-MEL-5): 101%; growth at 10 µM (SNB-75): 70.2%; growth at 10 µM (A549): 96.9%; growth at 10 µM (NCI/ADR-RES): 103%; growth at 10 µM (HOP-62): 83.3%; growth at 10 µM (SF-539): 111%; growth at 10 µM (IGROV-1): 62.2%; growth at 10 µM (NCI-H23): 91.4%; growth at 10 µM (CAKI-1): 68.6%; growth at 10 µM (LOX IMVI): 104%; growth at 10 µM (MCF7): 60.1%; growth at 10 µM (OVCAR-8): 98.1%; growth at 10 µM (SK-OV-3): 96.8%; growth at 10 µM (M14): 89.8%; growth at 10 µM (HCT-116): 91.7%
